25 compounds from patent US7186743B2, “Substituted pyrazolyl compounds for the treatment of inflammation” (Pharmacia Corporation, priority 2001, dated 2007) can be followed below.

The test addresses T1, IKK2 (Homo sapiens, UniProt O14920).
T1 construct: made in house; host or cells: insect cells (baculovirus, pFastBac; SF9)
T1 sequence (O14920 1-756): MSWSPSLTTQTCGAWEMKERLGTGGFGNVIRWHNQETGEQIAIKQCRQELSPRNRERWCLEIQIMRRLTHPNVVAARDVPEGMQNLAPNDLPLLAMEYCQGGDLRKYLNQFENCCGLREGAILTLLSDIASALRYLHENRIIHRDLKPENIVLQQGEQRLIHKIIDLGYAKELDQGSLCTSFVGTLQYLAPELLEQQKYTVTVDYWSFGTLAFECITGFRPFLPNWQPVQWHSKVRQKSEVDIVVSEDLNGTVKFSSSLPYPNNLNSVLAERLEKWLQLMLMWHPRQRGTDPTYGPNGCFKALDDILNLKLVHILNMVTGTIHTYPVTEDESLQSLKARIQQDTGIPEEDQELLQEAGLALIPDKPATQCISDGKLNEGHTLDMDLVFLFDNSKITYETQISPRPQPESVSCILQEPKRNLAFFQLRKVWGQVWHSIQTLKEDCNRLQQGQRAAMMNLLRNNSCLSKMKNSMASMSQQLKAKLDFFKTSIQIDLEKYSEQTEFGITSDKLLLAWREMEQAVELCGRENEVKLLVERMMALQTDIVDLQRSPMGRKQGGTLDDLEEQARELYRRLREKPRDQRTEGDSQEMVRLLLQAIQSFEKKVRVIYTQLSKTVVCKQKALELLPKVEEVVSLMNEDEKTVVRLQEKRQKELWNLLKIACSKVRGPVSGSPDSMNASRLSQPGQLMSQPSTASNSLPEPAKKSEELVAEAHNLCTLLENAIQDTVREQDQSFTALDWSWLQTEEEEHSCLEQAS
As to the kind of experiment: IKKβ Resin Enzyme Assay (IKK2 resin). The format is biochemical. The method, boiled down: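 Enzyme: human IKK2 with a C-terminal FLAG tag, baculovirus-expressed, purified as homodimer on anti-FLAG resin. It phosphorylates a biotinylated IκBα peptide with 1 μM ATP plus [γ-33P]ATP in 25 mM Hepes pH 7.6, Mg/Mn, for 30 min at 25° C. Incorporation is counted by scintillation after anion-exchange resin stop.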

The mark [1] stands for this setting: Table 6, read-out: IKK2 Resin IC 50.
The mark [2] stands for this setting: Table 4, read-out: IKK2 Resin IC50.
The mark [3] stands for this setting: Table 7, read-out: IKK2 Resin IC50.
Where [4] appears, read: Table 14, read-out: IKK2 Resin IC50.

The structures appear in SMILES notation. pIC50: −log10 of the molar value. Structures can show the parent of a compound that is named as a salt. Where two headings read alike, the source gives them in different places.

`NC(=O)c1nn(-c2ccc(F)cc2)c2c1CCc1ccc(NC(=O)c3ccc(N)cc3Cl)cc1-2` [Example 232, 8-[(4-amino-2-chlorobenzoyl)amino]-1-(4-fluorophenyl)-4,5-dihydro-1H-benzo[g]indazole-3-carboxamide]: the pIC50 under setting [1] is no less than 6.00.

Regarding `NC(=O)c1nn(-c2ccc3c(c2)OCO3)c2c1CCc1ccc(NC(=O)c3cccc(Cl)c3Cl)cc1-2` [Example 194, 1-(1,3-benzodioxol-5-yl)-8-[(2,3-dichlorobenzoyl)amino]-4,5-dihydro-1H-benzo[g]indazole-3-carboxamide], the pIC50 under setting [2] was no less than 6.00.

For `CSc1ccc(-n2nc(C(N)=O)c3c2-c2cc(NC(=O)c4ccncc4Cl)ccc2CC3)cc1` [Example 412, 8-[(3-chloroisonicotinoyl)amino]-1-[4-(methylthio)phenyl]-4,5-dihydro-1H-benzo[g]indazole-3-carboxamide hydrochloride], the pIC50 (Table 19, read-out: IKK2 Resin IC50) is no less than 6.00.

On to `CS(=O)(=O)c1ccc(-n2nc(C(N)=O)c3c2-c2cc(NC(=O)c4ccc(N)cc4Cl)ccc2CC3)cc1` [Example 114, 8-[(4-amino-2-chlorobenzoyl)amino]-1-[4-(methylsulfonyl)phenyl]-4,5-dihydro-1H-benzo[g]indazole-3-carboxamide], for which the pIC50 (Table 2, read-out: IKK Resin IC50) is no less than 6.00.

On to `NC(=O)c1nn(-c2ccc(/C=C/C(=O)NCc3ccco3)cc2)c2c1CCc1ccc(NC(=O)c3ccccc3Cl)cc1-2` [Example 310, 8-[(2-chlorobenzoyl)amino]-1-(4-{(1E)-3-[(2-furylmethyl)amino]-3-oxoprop-1-enyl}phenyl)-4,5-dihydro-1H-benzo[g]indazole-3-carboxamide], for which the pIC50 (Table 12, read-out: IKK2 Resin IC50) is no less than 6.00.

Turning to `NC(=O)c1nn(-c2ccc(F)cc2)c2c1CCc1ccc(NC(=O)c3cc(N4CCNCC4)ncc3Cl)cc1-2` [Example 253, 8-[(5-chloro-2-piperazin-1-ylisonicotinoyl)amino]-1-(4-fluorophenyl)-4,5-dihydro-1H-benzo[g]indazole-3-carboxamide], under setting [3], the pIC50 was no less than 6.00.

Regarding `CCS(=O)(=O)c1ccc(-n2nc(C(N)=O)c3c2-c2cc(NC(=O)c4cc(NC(C)=O)ccc4Cl)ccc2CC3)cc1` [Example 392, 8-{[5-(acetylamino)-2-chlorobenzoyl]amino}-1-[4-(ethylsulfonyl)phenyl]-4,5-dihydro-1H-benzo[g]indazole-3-carboxamide], the pIC50 (Table 18, read-out: IKK2 Resin IC50) was no less than 6.00.

`NC(=O)c1nn(-c2ccccc2)c2c1CCc1ccc(NC(=O)c3ccccc3Cl)cc1-2` [Example 328, 8-[(2-chlorobenzoyl)amino]-1-phenyl-4,5-dihydro-1H-benzo[g]indazole-3-carboxamide]: the pIC50 under setting [4] was no less than 6.00.

As to `NC(=O)c1nn(-c2ccc(Br)cc2)c2c1CCc1ccc(NC(=O)c3ccccc3Cl)cc1-2` [Example 350, 1-(4-bromophenyl)-8-[(2-chlorobenzoyl)amino]-4,5-dihydro-1H-benzo[g]indazole-3-carboxamide], the pIC50 under setting [4] was no less than 6.00.

On to `NC(=O)c1nn(-c2ccc(F)cc2)c2c1CCc1ccc(NC(=O)c3ccccc3Cl)cc1-2` [Example 230, 8-[(2-chlorobenzoyl)amino]-1-(4-fluorophenyl)-4,5-dihydro-1H-benzo[g]indazole-3-carboxamide], for which the pIC50 under setting [1] is no less than 6.00.

`CC1(C)Cc2c(C(N)=O)nn(-c3ccc4c(c3)OCO4)c2-c2cc(NC(=O)c3cccnc3Cl)ccc21` [Example 434, 1-(1,3-benzodioxol-5-yl)-8-{[(2-chloropyridin-3-yl)carbonyl]amino}-5,5-dimethyl-4,5-dihydro-1H-benzo[g]indazole-3-carboxamide]: the pIC50 (Table 22, read-out: IKK2 Resin IC50) was no less than 6.00.

On to `CS(=O)(=O)c1ccc(-n2nc(C(N)=O)c3c2-c2cc(NC(=O)c4cc(F)c(F)cc4[N+](=O)[O-])ccc2CC3)cc1` [Example 149, 8-[(4,5-difluoro-2-nitrobenzoyl)amino]-1-[4-(methylsulfonyl)phenyl]-4,5-dihydro-1H-benzo[g]indazole-3-carboxamide], for which the pIC50 (Table 3, read-out: IKK Resin IC50) was no less than 6.00.

Regarding `NC(=O)c1nn(-c2ccc3c(c2)OCO3)c2c1CCc1ccc(NC(=O)c3cc4c(cc3Cl)OCO4)cc1-2` [Example 168, 1-(1,3-benzodioxol-5-yl)-8-{[(6-chloro-1,3-benzodioxol-5-yl)carbonyl]amino}-4,5-dihydro-1H-benzo[g]indazole-3-carboxamide], the pIC50 under setting [2] is no less than 6.00.

With `NC(=O)c1nn(-c2ccc(F)cc2)c2c1CCc1ccc(NC(=O)c3cc(N)ccc3Cl)cc1-2` [Example 236, 8-[(5-amino-2-chlorobenzoyl)amino]-1-(4-fluorophenyl)-4,5-dibydro-1H-benzo[g]indazole-3-carboxamide], the pIC50 under setting [1] was no less than 6.00.

`CN(C)CCSc1ccc(Cl)c(C(=O)Nc2ccc3c(c2)-c2c(c(C(N)=O)nn2-c2ccc(F)cc2)CC3)n1` [Example 257, 8-{[(3-chloro-6-{[2-(dimethylamino)ethyl]thio}pyridin-2-yl)carbonyl]amino}-1-(4-fluorophenyl)-4,5-dihydro-1H-benzo[g]indazole-3-carboxamide]: the pIC50 under setting [3] is no less than 6.00.

As to `CN(C)S(=O)(=O)c1ccc(-n2nc(C(N)=O)c3c2-c2cc(NC(=O)c4ccccc4Cl)ccc2CC3)cc1` [Example 50, 8-[(2-chlorobenzoyl)amino]-1-{4-[(dimethylamino)sulfonyl]phenyl}-4,5-dihydro-1H-benzo[g]indazole-3-carboxamide], the pIC50 (Table 1, read-out: IKK2-resin) was no less than 6.00.

Take `CC(C)CNCC(=O)Nc1ccc2c(c1)-c1c(c(C(N)=O)nn1-c1ccc3c(c1)OCO3)CC2` [Example 451, 1-(1,3-benzodioxol-5-yl)-8-[(N-isobutylglycyl)amino]-4,5-dihydro-1H-benzo[g]indazole-3-carboxamide]: the pIC50 (Table 23, read-out: IKK2 Resin IC50) was no less than 6.00.

For `NC(=O)c1nn(-c2cccc(O)c2)c2c1CCc1ccc(NC(=O)c3ccccc3Cl)cc1-2` [Example 262, 8-[(2-chlorobenzoyl)amino]-1-(3-hydroxyphenyl)-4,5-dihydro-1H-benzo[g]indazole-3-carboxamide], where the note is “Table 8, read-out: IKK2 Resin IC50”, the pIC50 was no less than 6.00.

For the compound `NC(=O)c1nn(-c2ccc(/C=C/CCO)cc2)c2c1CCc1ccc(NC(=O)c3ccccc3Cl)cc1-2` [Example 298, 8-[(2-chlorobenzoyl)amino]-1-{4-[(1E)-4-hydroxybut-1-enyl]phenyl}-4,5-dihydro-1H-benzo[g]indazole-3-carboxamide], the pIC50 (Table 11, read-out: IKK2 Resin IC50) was no less than 6.00.

For `CS(=O)(=O)c1ccc(-n2nc(C(N)=O)c3c2-c2cc(NC(=O)c4ccccc4Cl)ccc2CC3)cn1` [Example 368, 8-[(2-chlorobenzoyl)amino]-1-[6-(methylsulfonyl)pyridin-3-yl]-4,5-dihydro-1H-benzo[g]indazole-3-carboxamide], the pIC50 (read-out: IKK-2 resin IC50) is no less than 6.00.

As for `NC(=O)c1nn(-c2ccc(F)cc2)c2c1CCc1ccc(NC(=O)c3cccc([N+](=O)[O-])c3Cl)cc1-2` [Example 241, 8-[(2-chloro-3-nitrobenzoyl)amino]-1-(4-fluorophenyl)-4,5-dihydro-1H-benzo[g]indazole-3-carboxamide], the pIC50 under setting [1] was no less than 6.00.

Regarding `NC(=O)c1nn(-c2ccc(C#CCCCO)cc2)c2c1CCc1ccc(NC(=O)c3cccnc3Cl)cc1-2` [Example 387, 8-{[(2-chloropyridin-3-yl)carbonyl]amino}-1-[4-(5-hydroxypent-1-ynyl)phenyl]-4,5-dihydro-1H-benzo[g]indazole-3-carboxamide], the pIC50 (Table 17, read-out: IKK2 Resin IC50) was no less than 6.00.

Turning to `NC(=O)c1nn(-c2cc(F)cc(F)c2)c2c1CCc1ccc(NC(=O)c3cccnc3Cl)cc1-2` [Example 347, 8-{[(2-chloropyridin-3-yl)carbonyl]amino}-1-(3,5-difluorophenyl)-4,5-dihydro-1H-benzo[g]indazole-3-carboxamide], the pIC50 under setting [4] was no less than 6.00.

In the case of `NC(=O)c1nn(-c2ccc3c(c2)OCO3)c2c1CCc1ccc(NC(=O)c3cccc(N)c3Cl)cc1-2` [Example 171, 8-[(3-amino-2-chlorobenzoyl)amino]-1-(1,3-benzodioxol-5-yl)-4,5-dihydro-1H-benzo[g]indazole-3-carboxamidehydrochloride], the pIC50 under setting [2] is no less than 6.00.

Take `Cc1ccc(C(=O)Nc2ccc3c(c2)-c2c(c(C(N)=O)nn2-c2ccc(F)cc2)CC3)c(Cl)n1` [Example 227, 8-{[(2-chloro-6-methylpyridin-3-yl)carbonyl]amino}-1-(4-fluorophenyl)-4,5-dihydro-1H-benzo[g]indazole-3-carboxamide]: the pIC50 under setting [1] is no less than 6.00.
